Experimental data from ChEMBL document CHEMBL4706683 (J Med Chem, 2021).
Active and inactive are the calls of the source. The rule behind the calls is not given here.

Key:
Plasmodium falciparum [1] = assay: Antiplasmodial activity against synchronized ring stage Plasmodium falciparum Dd2 infected in human erythrocytes assessed as reduction in parasite growth incubated for 72 hrs by Giemsa staining based light microscopic method; assay type: functional, organism-based; conditions: Dd2, Erythrocyte
[2] = Selectivity index, ratio of IC50 for cytotoxicity against human HEK293T cells assessed to IC50 for antiplasmodial activity against synchronized ring stage Plasmodium falciparum 3D7 infected in human erythrocytes; assay type: toxicity, cell-based; conditions: read-out: Ratio IC50
HEK-293T = assay: Cytotoxicity against human HEK293T cells assessed as reduction in cell viability incubated for 72 hrs by cell titer glo assay; assay type: cell-based
[3] = Selectivity index, ratio of IC50 for cytotoxicity against human HepG2 cells assessed to IC50 for antiplasmodial activity against synchronized ring stage Plasmodium falciparum 3D7 infected in human erythrocytes; assay type: toxicity, cell-based; conditions: read-out: Ratio IC50
Plasmodium falciparum [4] = assay: Antiplasmodial activity against synchronized ring stage Plasmodium falciparum 3D7 infected in human erythrocytes assessed as reduction in parasite growth incubated for 72 hrs by Giemsa staining based light microscopic method; assay type: functional, organism-based; conditions: 3D7, Erythrocyte
HepG2 = assay: Cytotoxicity against human HepG2 cells assessed as reduction in cell viability incubated for 72 hrs by cell titer glo assay; assay type: cell-based; conditions: HepG2, 72 h
Plasmodium falciparum [5] = assay: Antiplasmodial activity against artemisinin-resistant Plasmodium falciparum 6218 infected in human erythrocytes assessed as reduction in parasite growth incubated for 72 hrs by Giemsa staining based light microscopic method; assay type: functional, organism-based; conditions: Plasmodium falciparum, 6218, Erythrocyte
Plasmodium falciparum [6] = assay: Antiplasmodial activity against Plasmodium falciparum C2A infected in human erythrocytes assessed as reduction in parasite growth incubated for 72 hrs by Giemsa staining based light microscopic method; assay type: functional, organism-based; conditions: Erythrocyte
Plasmodium falciparum [7] = assay: Antiplasmodial activity against Plasmodium falciparum GB4 infected in human erythrocytes assessed as reduction in parasite growth incubated for 72 hrs by Giemsa staining based light microscopic method; assay type: functional, organism-based; conditions: GB4, Erythrocyte
Plasmodium falciparum [8] = assay: Antiplasmodial activity against Plasmodium falciparum CP286 infected in human erythrocytes assessed as reduction in parasite growth incubated for 72 hrs by Giemsa staining based light microscopic method; assay type: functional, organism-based; conditions: CP286, Erythrocyte
Plasmodium falciparum [9] = assay: Antiplasmodial activity against artemisinin-resistant ring stage Plasmodium falciparum 6320 infected in human erythrocytes assessed as reduction in parasite growth incubated for 72 hrs by Giemsa staining based light microscopic method; assay type: functional, organism-based; conditions: Plasmodium falciparum, 6320, Erythrocyte
[10] = Half life in mouse liver microsomes incubated upto 45 mins in presence of NADPH by LC-MS/MS analysis; assay type: ADME, Microsome
[11] = Clearance in mouse liver microsomes incubated upto 45 mins in presence of NADPH by LC-MS/MS analysis; assay type: ADME, Microsome; conditions: read-out: CLH
[12] = Toxicity in Balb/c mouse infected with blood stage Plasmodium yoelii assessed as animal death at 60 mg/kg, ip QD for 5 consecutive days and measured on day 30; assay type: organism-based; conditions: in vivo, 120 h, time 5 day
Plasmodium yoelii = assay: Antiplasmodial activity against blood stage Plasmodium yoelii infected in Balb/c mouse assessed as reduction in parasitemia at 60 mg/kg, ip QD for 5 consecutive days and measured on day 30 by microscopic analysis; assay type: functional, organism-based; conditions: time 5.0 day

Row | Compound | IC50 (Plasmodium falciparum [1]) [nM] | selectivity ratio [2] | IC50 (HEK-293T) [nM] | selectivity ratio [3] | IC50 (Plasmodium falciparum [4]) [nM] | IC50 (HepG2) [nM] | IC50 (Plasmodium falciparum [5]) [nM] | IC50 (Plasmodium falciparum [6]) [nM] | IC50 (Plasmodium falciparum [7]) [nM] | IC50 (Plasmodium falciparum [8]) [nM] | IC50 (Plasmodium falciparum [9]) [nM] | half-life [10] [h] | CLint scaled [11] [mL/min/kg] | Activity [12] | Activity (Plasmodium yoelii)
1 | O=C(NO)c1cnc(N2CCC3(CCN(Cc4cnc5ccccn45)C3)CC2)nc1 | 18.5 | 245 | 3530 | 136 | 14.4 | 1960 | – | – | – | – | – | – | – | – | –
2 | Cn1nc(CN2CCC3(CCN(c4ncc(C(=O)NO)cn4)CC3)C2)c2ccccc21 | 4.9 | 82 | 395 | 29 | 4.8 | 139 | – | – | – | – | – | – | – | – | –
3 | O=C(NO)c1cnc(N2CCC3(CCN(Cc4ccccc4)C3)CC2)nc1 | 7.6 | 55 | 375 | 32 | 6.8 | 217 | – | – | – | – | – | – | – | – | –
4 | C[C@H]1[C@@H](O)O[C@@H]2O[C@@]3(C)CC[C@H]4[C@H](C)CC[C@@H]1[C@@]24OO3 [ARTENIMOL] | 2.68 | – | – | – | 2.7 | – | 5.2 | 3.7 | 3.2 | 5.6 | 5.9 | – | – | – | –
5 | Cl.Cn1cc(CN2CCC3(CCN(c4ncc(C(=O)NO)cn4)CC3)C2)c2ccccc21 | 2.5 | 22 | 60 | 26 | 2.8 | 72 | 3.5 | 4.87 | 3.7 | 3.9 | 4.1 | 0.214 | 424 | Toxic | –
6 | O=C(NO)c1cnc(N2CCC3(CCN(Cc4ccc5ccccc5c4)C3)CC2)nc1 | 3.16 | 118 | 484 | 56 | 4.1 | 228 | – | – | – | – | – | – | – | – | –
7 | O=C(NO)c1cnc(N2CCC3(CCN(Cc4ccc(-c5ccccc5)cc4)C3)CC2)nc1 | 46.1 | 21 | 732 | 19 | 34.5 | 641 | – | – | – | – | – | – | – | – | –
8 | O=C(NO)c1cnc(N2CCC3(CCN(CC4CCCC4)C3)CC2)nc1 | 12.7 | 90 | 1220 | 46 | 13.6 | 630 | – | – | – | – | – | – | – | – | –
9 | O=C(NO)c1cnc(N2CCC3(CCN(Cc4cccnc4)C3)CC2)nc1 | 17.9 | 104 | 2130 | 90 | 20.4 | 1830 | – | – | – | – | – | – | – | – | –
10 | O=C(NO)c1cnc(N2CCC3(CCN(Cc4ccccn4)C3)CC2)nc1 | 23.3 | 106 | 1720 | 80 | 16.2 | 1300 | – | – | – | – | – | – | – | – | –
11 | O=C(NO)c1cnc(N2CCC3(CCN(Cc4ccnc5ccccc45)C3)CC2)nc1 | 14.7 | 24 | 351 | 33 | 14.6 | 482 | – | – | – | – | – | – | – | – | –
12 | Cl.Cn1cc(CN2CCC3(CCN(c4ncc(C(=O)NO)cn4)CC3)C2)c2cnccc21 | 4.9 | 370 | 1460 | 248 | 4 | 982 | 8.7 | 11.7 | 9.5 | 11.1 | 8.4 | 2.09 | 43.5 | Toxic | –
13 | Cl.Cn1cc(CN2CCC3(CCN(c4ncc(C(=O)NO)cn4)CC3)C2)c2cccnc21 | 3.4 | 132 | 399 | 93 | 3 | 281 | 5 | 6.18 | 6.4 | 6.8 | 5.2 | 2.75 | 33.1 | Non-Toxic | inactive
14 | O=C(NO)c1cnc(N2CCC3(CCN(Cc4c5ccccc5cc5ccccc45)C3)CC2)nc1 | 16.5 | 18 | 390 | 7 | 22.3 | 165 | – | – | – | – | – | – | – | – | –
15 | O=C(NO)c1cnc(N2CCC3(CCN(Cc4cnc5ccccc5c4)C3)CC2)nc1 | 2.7 | 26 | 145 | 102 | 5.54 | 564 | – | – | – | – | – | – | – | – | –
16 | O=C(NO)c1cnc(N2CCC3(CCN(Cc4cc5ccccc5c5ccccc45)C3)CC2)nc1 | 8.5 | 48 | 482 | 20 | 10.1 | 204 | – | – | – | – | – | – | – | – | –
17 | O=C(NO)c1cnc(N2CCC3(CCN(Cc4coc5ccccc45)C3)CC2)nc1 | 10.9 | 42 | 576 | 65 | 13.6 | 886 | – | – | – | – | – | – | – | – | –
18 | O=C(NO)c1cnc(N2CCC3(CCN(Cc4ccc5ccccc5n4)C3)CC2)nc1 | 2.98 | 57 | 393 | 47 | 6.9 | 320 | – | – | – | – | – | – | – | – | –
19 | O=C(NO)c1cnc(N2CCC3(CCN(Cc4cccc5ccccc45)C3)CC2)nc1 | 6.7 | 35 | 154 | 21 | 4.4 | 91 | – | – | – | – | – | – | – | – | –
20 | O=C(NO)c1cnc(N2CCC3(CCN(Cc4cccc5ncccc45)C3)CC2)nc1 | 9.2 | 48 | 559 | 64 | 11.6 | 740 | – | – | – | – | – | – | – | – | –
21 | O=C(NO)c1cnc(N2CCC3(CCN(Cc4ccsc4)C3)CC2)nc1 | 11.8 | 36 | 831 | 46 | 23.1 | 1060 | – | – | – | – | – | – | – | – | –
22 | Cl.Cn1cc(CN2CCC3(CCN(c4ncc(C(=O)NO)cn4)CC3)C2)c2ncccc21 | 4.3 | 235 | 755 | 266 | 3.22 | 855 | 4.04 | 5 | 3.7 | 5.5 | 3.8 | 2.25 | 40.4 | Non-Toxic | inactive
23 | O=C(NO)c1cnc(N2CCC3(CCN(Cc4csc5ccccc45)C3)CC2)nc1 | 3.6 | 25 | 109 | 18 | 4.3 | 79 | – | – | – | – | – | – | – | – | –
24 | O=C(NO)c1cnc(N2CCC3(CCN(Cc4cccc5ccncc45)C3)CC2)nc1 | 6.9 | 26 | 207 | 51 | 8.1 | 415 | – | – | – | – | – | – | – | – | –
25 | O=C(NO)c1cnc(N2CCC3(CCN(Cc4ccncc4)C3)CC2)nc1 | 22.8 | 206 | 3470 | 193 | 16.9 | 3250 | – | – | – | – | – | – | – | – | –
26 | O=C(NO)c1cnc(N2CCC3(CCN(Cc4cncc5ccccc45)C3)CC2)nc1 | 7.9 | 37 | 423 | 9 | 11.5 | 102 | – | – | – | – | – | – | – | – | –
27 | O=C(NO)c1cnc(N2CCC3(CCN(Cc4ccc5ccc6cccc7ccc4c5c67)C3)CC2)nc1 | 19.5 | 74 | 1970 | 64 | 26.4 | 1680 | – | – | – | – | – | – | – | – | –
28 | O=C(NO)c1cnc(N2CCC3(CCN(Cc4cccc5cccnc45)C3)CC2)nc1 | 3.4 | 44 | 351 | 28 | 8 | 221 | – | – | – | – | – | – | – | – | –
29 | O=C(NO)c1cnc(N2CCC3(CCN(CC4CCCCC4)C3)CC2)nc1 | 14.7 | 122 | 1250 | 160 | 10.2 | 1630 | – | – | – | – | – | – | – | – | –
30 | O=C(NO)c1cnc(N2CCC3(CCN(Cc4ccoc4)C3)CC2)nc1 | 26.3 | 46 | 1630 | 30 | 35.3 | 1050 | – | – | – | – | – | – | – | – | –
